Laboratory results as given in patent publication US4920121A.
pKi: −log10 of the molar value. Read-outs that look alike come from different tables or passages of the source.

Assays:
[1] = system: male, Charles River mice, CF-1; assay: rotorod motor coordination (RMC) test
Experimental: In order to differentiate between specific antiagressive effects and an inhibition of fighting due to debilitation, rotorod motor coordination (RMC) tests were conducted according to an adaptation of the method of Dunham et al., J. Am. Pharm. Assc. […] The amount of time spent on the rod (maximum of 60 seconds) was recorded and compared with the vehicle treated control animals. […] In comparison, the minimum effective dose (mg/kg i.p.) of buspirone in the isolation induced aggression study was 10.0 mg/kg and greater than 60.0 mg/kg in producing ataxia as evaluated by the rotorod motor coordination study.

[2] = system: male CD rats (Charles River); assay: discrete trial conditioned avoidance responding (CAR) test; format: in vivo; conditions: Rattus norvegicus, ip, thirty minutes before the test, instant test procedure, read-out: ED50 (reduction in avoidance responding)
Experimental: The conditioned avoidance responding (CAR) test was conducted in male CD rats (Charles River) maintained at approximately 400-450 g body weight. Rats trained previously were placed in Plexiglas® experimental chambers equipped with a response lever, house light and sonalert. The steel grid chamber floor is wired for presentation of an electric shock. Each trial consists of a fifteen second warning tone conditioned stimulus, continuing for an additional fifteen seconds accompanied by electric shock (unconditioned stimulus). The rat can terminate a trial at any point by depressing the response lever. A response during the initial fifteen second warning tone ends the trial before shock delivery and is considered an avoidance response. A response occurring during shock delivery is an escape response. […] The ED50 of the test compound is calculated from the percentage reduction in avoidance responding and represents that dose at which only half the responses are made.

[3] = target: T1, post synaptic 5-HT1A receptor (Rattus norvegicus, UniProt P19327); conditions: for in vivo postsynaptic 5-HT1A activity profile in serotonin syndrome tests: rats, i.p.
T1 sequence (P19327 1-422): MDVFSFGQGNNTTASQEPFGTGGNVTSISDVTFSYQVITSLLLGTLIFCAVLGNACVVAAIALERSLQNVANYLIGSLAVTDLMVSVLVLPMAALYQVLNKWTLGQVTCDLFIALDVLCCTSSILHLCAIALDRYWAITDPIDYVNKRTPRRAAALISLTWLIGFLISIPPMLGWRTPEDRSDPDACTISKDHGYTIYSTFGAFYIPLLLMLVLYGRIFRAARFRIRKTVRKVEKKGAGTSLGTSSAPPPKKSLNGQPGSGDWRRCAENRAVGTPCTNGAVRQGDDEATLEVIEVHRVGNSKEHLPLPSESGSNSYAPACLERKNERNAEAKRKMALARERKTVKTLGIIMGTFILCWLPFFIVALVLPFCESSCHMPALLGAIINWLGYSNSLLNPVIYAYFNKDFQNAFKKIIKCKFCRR
Experimental: (§1) Serotonin syndrome tests were conducted according to the method of Smith et al., Pharmacol. Biochem. and Behav., 24 1513 (1986).
(§2) Male Sprague-Dawley CD rats (Charles River) weighing 200-300 g were housed 6/cage with food and water available ad libitum. Animals were allowed to acclimate to the animal colony for at least 1 week prior to testing. Rats were placed individually into plexiglas® observation cages with a layer of bedding covering the bottom. […] During the 15 minute pretreatment, subjects were scored for the presence of the 5-HT syndrome (agonist activity). After the 8-OH-DPAT injection, all subjects were scored for an additional 15 minutes to identify antagonist activity. Scoring the 5-HT syndrome consisted of rating the following behaviors: (1) forepaw treading, (2) head-weaving, (3) tremor, (4) hindlimb abduction, (5) flattened body posture, and (6 ) Straub tail on a 4-point ranked intensity scale with a maximum score of 18. Results were expressed as mean total score (+/-SEM) for induction of syndrome and for antagonism of syndrome.

5-HT1A receptors = conditions: Martin et al., European J. of Pharmacol. 156 223 (1988); cited from earlier work
[4] = system: male CD rats (Charles River); conditions: i.p., reported by Martin et al. 1988; cited from earlier work
[5] = system: male Charles River, CF-1 mice; assay: isolation-induced aggression test; conditions: for total fighting time (TFT): 60 minutes before testing, 3 minute test, vehicle controls 15.7 seconds
Experimental: The isolation-induced aggression test was conducted with male mice in an adaptation of the method of DaVanzo et al., Psychopharmacology, (Berlin) 9 210 (1966) whereby male Charles River, CF-1 mice, 16-20 g in weight were individually housed for a period of three weeks and then trained to attack an intruder mouse which had been group housed (10/cage). […] The total fighting time (TFT) in seconds was recorded during a 3 minute test period upon introduction of the intruder mouse into the cage of the aggressive mouse.

[6] = target: T1, post synaptic 5-HT1A receptor; assay: in vivo; conditions: ip
Experimental: as §1, §2

Compound	dosage at which mice became debilitated (rotorod) ([1]; intraperitoneally 60 minutes before rotorod)	debilitating dose relative to dose that antagonized aggressive activity ([1]; rotorod vs isolation-induced aggression, mice i.p.)	ED50 [2]	antagonism of serotonin syndrome induced by 8-OH-DPAT ([3]; 33 mg/kg i.p., 15 minutes prior to 5.6 mg/kg i.p. 8-OH-DPAT)	induction of 5-HT syndrome (agonist activity) ([3]; 10 and 30 mg/kg i.p., scored during 15 minute pretreatment)	in vivo postsynaptic 5-HT1A activity profile in serotonin syndrome tests [3]	pKi (5-HT1A receptors)	ED50 (reduction in avoidance responding) [4]	total fighting time (TFT) ([5]; 0.5 mg/kg i.p.)	total fighting time (TFT) ([5]; 1.0 mg/kg i.p.)	total fighting time (TFT) ([5]; 3.0 mg/kg i.p.)	minimum effective dose in producing ataxia (rotorod motor coordination) ([1]; mouse, in vivo, ip)	ED50 ([6]; read-out: agonist ED50)	ED50 ([6]; read-out: antagonist ED50)	minimal effective dose ([5]; Mus musculus, ip, 1 h, read-out: minimum effective dose in the isolation induced aggression study)
COc1ccccc1N1CCNCC1	≥ 30.0 mg/kg	at least ten times the dose that antagonized aggressive activity	10.6 mg/kg	antagonized the serotonin syndrome	displayed agonist activity	weak partial agonist activity	8.02	5.6 mg/kg	5.1 s	0.7 s	0.1 s	–	–	–	–
O=C1CC2(CCCC2)CC(=O)N1CCCCN1CCN(c2ncccn2)CC1 [buspirone, reference compound]	–	–	–	–	–	partial agonist profile	–	–	–	–	–	greater than 60.0 mg/kg	7 mg/kg	4 mg/kg	10 mg/kg
